Data set [1] concerns the target T1, UDP-glucuronosyltransferase 1A10 (Homo sapiens, UniProt Q9HAW8).
T1 sequence (Q9HAW8 whole entry): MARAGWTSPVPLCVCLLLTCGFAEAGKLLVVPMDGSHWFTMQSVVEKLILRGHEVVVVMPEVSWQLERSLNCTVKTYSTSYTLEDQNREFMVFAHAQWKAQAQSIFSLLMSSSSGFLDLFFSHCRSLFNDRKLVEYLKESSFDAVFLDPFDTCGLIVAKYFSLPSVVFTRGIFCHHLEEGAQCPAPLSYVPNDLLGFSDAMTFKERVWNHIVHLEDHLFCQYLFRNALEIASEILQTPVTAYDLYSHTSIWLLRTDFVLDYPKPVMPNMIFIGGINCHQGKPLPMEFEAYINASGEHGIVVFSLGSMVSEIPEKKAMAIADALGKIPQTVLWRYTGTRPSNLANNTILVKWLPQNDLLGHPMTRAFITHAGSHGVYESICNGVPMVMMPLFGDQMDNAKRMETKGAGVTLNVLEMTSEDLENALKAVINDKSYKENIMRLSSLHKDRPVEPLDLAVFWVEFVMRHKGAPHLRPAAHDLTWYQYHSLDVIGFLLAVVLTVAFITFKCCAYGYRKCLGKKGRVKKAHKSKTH
The data set is described as follows: Inhibition of human recombinant UGT1A10 after 10 mins in presence of UDPGA. The format is ADME.

Data set [2] deals with T2, UDP-glucuronosyltransferase 2B15 (Homo sapiens, UniProt P54855).
T2 sequence (P54855 whole entry): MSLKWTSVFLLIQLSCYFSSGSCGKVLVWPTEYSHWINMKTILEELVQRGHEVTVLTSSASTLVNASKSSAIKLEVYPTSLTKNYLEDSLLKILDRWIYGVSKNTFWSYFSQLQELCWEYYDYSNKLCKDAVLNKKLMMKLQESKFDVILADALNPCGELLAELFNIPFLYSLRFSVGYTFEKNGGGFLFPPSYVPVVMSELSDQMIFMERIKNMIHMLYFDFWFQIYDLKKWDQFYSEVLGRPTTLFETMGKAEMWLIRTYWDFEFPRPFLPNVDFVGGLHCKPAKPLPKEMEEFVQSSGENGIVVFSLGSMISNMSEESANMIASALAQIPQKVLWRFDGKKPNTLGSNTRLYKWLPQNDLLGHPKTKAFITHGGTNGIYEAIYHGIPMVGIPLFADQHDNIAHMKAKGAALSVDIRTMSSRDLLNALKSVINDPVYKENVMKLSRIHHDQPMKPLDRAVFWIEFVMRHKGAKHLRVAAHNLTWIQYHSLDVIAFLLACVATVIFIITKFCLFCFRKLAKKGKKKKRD
The data set is described as follows: Activity of human recombinant UGT2B15 expressed in baculovirus-infected insect cells assessed as enzyme-mediated glucuronidation per mg of protein after 10 mins in presence of UDPGA. It counts as ADME.

Data set [3] concerns the target T3, UDP-glucuronosyltransferase 1A8 (Homo sapiens, UniProt Q9HAW9).
T3 sequence (Q9HAW9 whole entry): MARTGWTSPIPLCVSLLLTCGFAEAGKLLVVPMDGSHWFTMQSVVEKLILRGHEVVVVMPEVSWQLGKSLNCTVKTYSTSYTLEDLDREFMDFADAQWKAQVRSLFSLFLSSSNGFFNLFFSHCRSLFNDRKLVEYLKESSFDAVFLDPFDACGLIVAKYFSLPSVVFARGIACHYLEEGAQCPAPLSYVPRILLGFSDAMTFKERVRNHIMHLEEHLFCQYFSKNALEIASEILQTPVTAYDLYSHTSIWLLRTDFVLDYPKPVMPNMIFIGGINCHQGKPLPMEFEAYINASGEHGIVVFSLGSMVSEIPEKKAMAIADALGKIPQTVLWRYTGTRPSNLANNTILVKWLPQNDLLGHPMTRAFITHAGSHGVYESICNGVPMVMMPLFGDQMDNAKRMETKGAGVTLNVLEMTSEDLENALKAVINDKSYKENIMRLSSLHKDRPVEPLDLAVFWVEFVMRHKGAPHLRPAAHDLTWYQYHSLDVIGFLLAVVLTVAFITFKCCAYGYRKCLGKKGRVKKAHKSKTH
The data set is described as follows: Activity of human recombinant UGT1A8 expressed in baculovirus-infected insect cells assessed as intrinsic clearance for enzyme-mediated glucuronide formation per mg of protein at 1 to 250 uM after 10 mins in presence of UDPGA. The format is ADME.

Data set [4] has as its target T4, UDP-glucuronosyltransferase 1A9 (Homo sapiens, UniProt O60656).
T4 sequence (O60656 whole entry): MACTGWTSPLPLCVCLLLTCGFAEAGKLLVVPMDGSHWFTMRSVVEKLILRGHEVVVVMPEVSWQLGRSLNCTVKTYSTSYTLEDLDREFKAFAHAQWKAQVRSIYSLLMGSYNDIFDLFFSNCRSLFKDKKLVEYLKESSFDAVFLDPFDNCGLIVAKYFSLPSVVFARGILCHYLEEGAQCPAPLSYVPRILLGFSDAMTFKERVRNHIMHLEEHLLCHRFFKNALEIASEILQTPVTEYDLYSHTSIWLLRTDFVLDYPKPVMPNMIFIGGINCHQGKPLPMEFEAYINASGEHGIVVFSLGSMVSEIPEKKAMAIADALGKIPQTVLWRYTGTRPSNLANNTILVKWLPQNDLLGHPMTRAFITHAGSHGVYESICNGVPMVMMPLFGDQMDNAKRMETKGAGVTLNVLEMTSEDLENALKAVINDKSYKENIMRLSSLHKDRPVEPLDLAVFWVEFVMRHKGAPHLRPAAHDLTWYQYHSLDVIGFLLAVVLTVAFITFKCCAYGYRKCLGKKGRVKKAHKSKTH
The data set is described as follows: Activity of human recombinant UGT1A9 expressed in baculovirus-infected insect cells assessed as unbound intrinsic clearance for enzyme-mediated glucuronidation per mg of protein after 5 mins by Michaelis-Menten plot analysis in presence of UDPGA and 2% fatty acid free BSA. It counts as ADME.

Data set [5] can be described thus: Fraction unbound in incubation mixture containing human recombinant UGT1A9 at 1 to 250 uM after 10 mins by ultrafiltration method in absence of fatty acid free BSA.
A short description of data set [6]: Fraction unbound incubation mixture containing human recombinant UGT1A9 at 1 to 250 uM after 10 mins by ultrafiltration method in presence of 0.5% fatty acid free BSA.
Data set [7] in a line: Drug metabolism in human liver microsomes assessed as glucuronidation after 10 mins by Michaelis-Menten plot analysis in presence of UDPGA and absence of fatty acid free BSA. It counts as ADME. Particulars: read-out: Km(unbound). A general note: Liver microsomes are vesicles of endoplasmic reticulum, rich in cytochrome P450 enzymes.

`COc1ccc(C(=O)Nc2cccc(O)c2NC(=O)c2ccc(N3CCCN(C)CC3)cc2)cc1.O=C(O)CCC(=O)O`: the Ki in data set [1] is 235 µM. For the same compound, in data set [2], the Drug metabolism was less than 0.01 nmol/min/mg. Besides, the clearance in data set [3] was determined as 51.5 µL/min/mg. Moreover, the CL free in data set [4] worked out at 316 µL/min/mg. In addition, the figures for the Fu in data set [5] and in data set [6] were 0.879 and 0.553, respectively. Besides, in data set [7], the Km at 10 min was found to be 216 µM.

The Ki is the dissociation constant of the complex between target and ligand, obtained from inhibition or displacement. By Km is commonly meant the substrate concentration at which the rate is half of its maximum.

For the origin of these results see ChEMBL document CHEMBL3526122, “Identification of UDP-glucuronosyltransferases responsible for the glucuronidation of darexaban, an oral factor Xa inhibitor, in human liver and intestine” (Drug Metab Dispos, 2012).
